The target of data set [1] is T1, WaaP from E. coli (WaaPEc) (Escherichia coli, UniProt Q9R9D6).
T1 construct: His-tag (N)
As to conditions: cited from earlier work.

The subject of another data set is F470 (wild type). Kind of data set: MIC of novobiocin and SDS, in vivo complementation assay. Type of data set: cell-based, E. coli. The source says: Site-directed mutagenesis and in vivo complementation assay—waaP was amplified by polymerase chain reaction (PCR) from pCOREc1 (de Kievit and Lam, 1997) with the flanking up- and down-stream primers ^5′[…]^3′ (SEQ ID NO: 3) and ^5′[…]^3′ (SEQ ID NO: 4) containing Baam HI and Hind III respectively. The PCR product was cloned into the complementation vector pUCP26 (West, 1994) as a positive control for complementation assay. Mutations of waaP were introduced by the method of “overlapping extension” as described by Horton (Horton, 1993) using PCR with the flanking primers as well as the primers shown below. K69A mutation was introduced with the primer (only up-strand was described here) ^5′[…]^3′ (SEQ ID NO: 5); K69R with ^5′[…]^3′ (SEQ ID NO: 6); D163A with ^5′[…]^3′ (SEQ ID NO: 7); and D163E with ^5′[…]^3′ (SEQ ID NO: 8). Underlined nucleotides indicated the mutations. The PCR products were then cloned into pUCP26 at Bam HI and Hind III sites respectively, and transformed into E. coli F470 7waaP- (Yethon 1998). Constructs of the mutations of waaP were sequenced to confirm the mutation. […]
To validate the accuracy of the alignment comparisons in FIG. 2, site-directed mutagenesis of waaPPa was performed targeting on K^69 and […], respectively. The effect of the site-directed mutation was evaluated by their ability to complement waaP-Ec. […]

The subject of data set [2] is E. coli F470 (waaP−)/waaPPa(D163A). Described as above. The data set is classed as cell-based. The source says: (§1) Site-directed mutagenesis and in vivo complementation assay—waaP was amplified by polymerase chain reaction (PCR) from pCOREc1 (de Kievit and Lam, 1997) with the flanking up- and down-stream primers ^5′[…]^3′ (SEQ ID NO: 3) and ^5′[…]^3′ (SEQ ID NO: 4) containing Baam HI and Hind III respectively. The PCR product was cloned into the complementation vector pUCP26 (West, 1994) as a positive control for complementation assay. Mutations of waaP were introduced by the method of “overlapping extension” as described by Horton (Horton, 1993) using PCR with the flanking primers as well as the primers shown below. K69A mutation was introduced with the primer (only up-strand was described here) ^5′[…]^3′ (SEQ ID NO: 5); K69R with ^5′[…]^3′ (SEQ ID NO: 6); D163A with ^5′[…]^3′ (SEQ ID NO: 7); and D163E with ^5′[…]^3′ (SEQ ID NO: 8). Underlined nucleotides indicated the mutations. The PCR products were then cloned into pUCP26 at Bam HI and Hind III sites respectively, and transformed into E. coli F470 7waaP- (Yethon 1998). Constructs of the mutations of waaP were sequenced to confirm the mutation. In vivo complementation was tested for the minimum inhibition concentration (MIC) of SDS and novobiocin, respectively according to Walsh, et al. 2000. E. coli F470 7waaP- was used as the negative control.
(§2) To validate the accuracy of the alignment comparisons in FIG. 2, site-directed mutagenesis of waaPPa was performed targeting on K^69 and […], respectively. The effect of the site-directed mutation was evaluated by their ability to complement waaP-Ec. It is noteworthy that the complementation assay was performed using waaP-Ec since waaP mutation is lethal to P. aeruginosa. In Table I, the complementation of waaP-Ec by wild type waaPPa increased the MICs of waaP-Ec by 3 and 30 times to novobiocin and SDS, respectively. However, the MICs of all the mutants were at the same level as that of waaP-Ec.

Data set [3] has as its system E. coli F470 (waaP−)/waaPPa(D163E). The data set is described as above. The data set is classed as cell-based.
Description: as §1, §2

Data set [4] concerns E. coli F470 (waaP−)/waaPPa(K69A). Described as above. Type of data set: cell-based.
Description: as §1, §2

In data set [5] the test system is E. coli F470 (waaP−)/waaPPa(K69R). The description is as above. Type of data set: cell-based.
Description: as §1, §2

The subject of data set [6] is E. coli F470 (waaP−)/waaPPa. The data set is described as above. The data set is classed as cell-based. As to conditions: for increase of the MIC of waaP-Ec by complementation with wild type waaPPa: versus E. coli F470 waaP− mutant.
Description: as §1, §2

For another data set, the system named is E. coli F470 (waaP−). The data set is described as above. The data set is classed as cell-based.
Description: as §1, §2

The target in another data set is T2, WaaPHisC (Pseudomonas aeruginosa, UniProt Q9HUF7).
T2 construct: made in house; host or cells: E. coli BL21(DE3)pLysS, vector pET30a(+)
The data set is classed as biochemical, P. aeruginosa. Here is the method: Antigen coating was accomplished by adding 50 μl LPS or enzyme reaction mixture to each well and then mixing with equal amount of chloroform-ethanol ([…]/EtOH) (1:10, v/v)). The plate was incubated at room temperature in the fume hood (flow rate at 150 ft·min^−1) overnight to allow the evaporation of the solvent. The ELISA was performed according to Bantroch et al. (1994) (Bantroch, 1994) with the following modifications. […] For the colorimetric method (Bantroch, 1994), the ELISA was developed at 37° C. for 2 h and the optical density at 405 nm was determined on a microplate reader (Flow Laboratories, Mississauga, ON). For the chemiluminescence development, 100 μl of the chemiluminescence substrate CDP-Star® Ready-to-Use with Emerald-II™ (CDP*) (Applied Biosystems, Bedford, Mass.) with 1:5 (v/v) diluted in diethanolamine buffer (9.6% (v/v) and 0.01% (w/v) MgCl2, pH 9.8) was added to each well. After incubation at room temperature for 20 min, the response of chemiluminescence was measured on a 1420-VICTOR^2 Multilabel Counter (Wallac, Montreal, QC) using chemiluminescence program.
The reaction mixture was incubated at 37° C. for 30 min (15 min for kinetics experiments) and quenched by the addition of 50 μl chloroform/ethanol (1:10) solution. The plate was then left at room temperature in the fume hood overnight and subjected to ELISA the next morning. PAO1-LPS was used as the standard to quantify phosphorylated LPS.
Therefore, the reactions on the kinetics studies measured the phosphorylation within the initial 15 min.

As a reminder, the Km is the substrate concentration at which the rate is half of its maximum. For orientation: MIC means the lowest concentration that inhibits growth of the organism. In general, Vmax refers to the rate approached at saturating substrate. Usually kcat stands for the number of substrate molecules converted per active site and unit of time at saturation.

T1 sequence (Q9R9D6 whole entry): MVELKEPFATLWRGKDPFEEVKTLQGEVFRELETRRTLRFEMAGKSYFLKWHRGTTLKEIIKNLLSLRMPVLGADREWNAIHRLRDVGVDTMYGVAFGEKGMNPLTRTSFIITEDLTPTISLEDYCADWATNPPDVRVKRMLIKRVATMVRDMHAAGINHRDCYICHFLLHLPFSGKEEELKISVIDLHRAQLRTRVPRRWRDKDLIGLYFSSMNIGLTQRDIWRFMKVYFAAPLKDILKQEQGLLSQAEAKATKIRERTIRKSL

Consider `Nc1ncnc2c1ncn2[C@@H]1O[C@H](COP(=O)(O)OP(=O)(O)OP(=O)(O)O)[C@@H](O)[C@H]1O` [ATP, adenosine triphosphate], for which the Michaelis-Menten constant (Km) in [1] is 130 µM.
As for `CCCCCCCCCCCCOS(=O)(=O)[O-].[Na+]` [SDS], the minimum inhibitory concentration (MIC) is >50,000 μg.ml^−1 with F470 (wild type) (strain F470 (wild type)); 400 µg/mL in [2] (strain E. coli F470 (waaP−)/waaPPa(D163A)); 200 µg/mL in data set [3] (strain E. coli F470 (waaP−)/waaPPa(D163E)); 400 µg/mL in [4] (strain E. coli F470 (waaP−)/waaPPa(K69A)); 400 µg/mL in data set [5] (strain E. coli F470 (waaP−)/waaPPa(K69R)); 12,500 μg.ml^−1 in [6] (strain E. coli F470 (waaP−) complemented with wild type waaPPa). The minimal inhibitory concentration (MIC) in the data set with E. coli F470 (waaP−) (strain E. coli F470 (waaP−)) amounted to 400 µg/mL. In addition, the “increase of the MIC of waaP-Ec by complementation with wild type waaPPa” value in data set [6] came out at 30 times.
With `CO[C@@H]1[C@@H](OC(N)=O)[C@@H](O)[C@H](Oc2ccc3c(O)c(NC(=O)c4ccc(O)c(CC=C(C)C)c4)c(=O)oc3c2C)OC1(C)C` [Novobiocin, novobiocin], the minimum inhibitory concentration (MIC) with F470 (wild type) (Escherichia coli) was greater than 200 µg/mL; in data set [2] (Escherichia coli), 25 µg/mL; in data set [3] (Escherichia coli), 50 µg/mL; in data set [4] (Escherichia coli) it was 50 µg/mL; in [5] (Escherichia coli), 50 µg/mL; in data set [6] (Escherichia coli), 150 µg/mL. Moreover, the MIC with E. coli F470 (waaP−) (Escherichia coli) amounted to 50 µg/mL. Also, the “increase of the MIC of waaP-Ec by complementation with wild type waaPPa” value in [6] was 3 times.

B1: WaaPHisC: recombinant P. aeruginosa WaaP with C-terminal 6×His tag, heptose/tyrosine kinase (protein, UniProt Q9HUF7 1-268, looked up)
Lipopolysaccharide core …: MRLVLEEPFKRLWNGRDPFEAVEALQGKVYRELEGRRTLRTEVDGRGYFVKIHRGIGWGEIAKNLLTAKLPVLGARQEWQAIRRLHEAGVATMTAVAYGERGSDPARQHSFIVTEELAPTVDLEVFSQDWRERPPPPRLKRALVEAVARMVGDMHRAGVNHRDCYICHFLLHTDKPVSADDFRLSVIDLHRAQTRDATPKRWRNKDLAALYFSALDIGLTRRDKLRFLRTYFRRPLREILRDEAGLLAWMERKAEKLYERKQRYGDLL
modifications: C-terminal 6xHis tag
notes: recombinant P. aeruginosa WaaP with C-terminal 6×His tag, heptose/tyrosine kinase
B1: in the data set with WaaPHisC (phosphorylation of HF-LPS), the Vmax is reported as 408.24 pmol/min and the catalytic constant (kcat) turned out to be 0.4538 s⁻¹. Moreover, the “enzyme activity remained after storage” value with WaaPHisC (storage at −20° C. for 7 days) is reported as “about 70%”.

The values above are taken from patent publication US20030017518A1, “Non-radio-active assay of LPS kinases” (priority 2001, published 2003).
